“And” between values parts separate entries of the source, which are not always exact repeats. Equal entries are not always repeated.

We go through five compounds from ChEMBL document CHEMBL4673355, “Thiacalixarene based quaternary ammonium salts as promising antibacterial agents” (Bioorg Med Chem, 2021).

The subject of data set [1] is Klebsiella pneumoniae. The data set is described as follows: Antibacterial activity against Klebsiella pneumoniae ATCC 10031 assessed as reduction in bacterial growth incubated for 24 hrs by CLSI broth microdilution method. Type of data set: functional.
Data set [2] concerns Staphylococcus aureus. Kind of data set: Antibacterial activity against Staphylococcus aureus ATCC 6538 incubated for 24 hrs by CLSI broth microdilution method. Type of data set: functional.
The test system of data set [3] is Pseudomonas aeruginosa. The data set is described as follows: Antibacterial activity against Pseudomonas aeruginosa ATCC 9027 assessed as reduction in bacterial growth incubated for 24 hrs by CLSI broth microdilution method. Type of data set: functional.
In data set [4] the test system is Escherichia coli. Kind of data set: Antibacterial activity against Escherichia coli ATCC 25922 assessed as reduction in bacterial growth incubated for 24 hrs by CLSI broth microdilution method. Type of data set: functional.
Data set [5] has as its system Pseudomonas aeruginosa. The data set is described as follows: Antibacterial activity against Pseudomonas aeruginosa ATCC 27853 assessed as reduction in bacterial growth incubated for 24 hrs by CLSI broth microdilution method. In kind it is functional. The settings on record: Pseudomonas aeruginosa, ATCC 27853, 24 h, read-out: MIC.
The nature of data set [6]: Antibacterial activity against […] resistant Moraxella sp.764 clinical isolate assessed as reduction in bacterial growth incubated for 24 hrs by CLSI broth microdilution method. Type of data set: functional. The note with it: Moraxella catarrhalis.
Data set [7] in a line: Antibacterial activity against […] resistant Moraxella sp.829 clinical isolate assessed as reduction in bacterial growth incubated for 24 hrs by CLSI broth microdilution method. Type of data set: functional. The settings on record: Moraxella catarrhalis.
Data set [8] has as its system Staphylococcus aureus. The data set is described as follows: Bactericidal activity against Staphylococcus aureus ATCC 29213 assessed as reduction in bacterial growth incubated for 24 hrs followed by replating on MH broth and further incubated for 24 hrs by CLSI broth microdilution method. Type of data set: functional. The settings on record: time 48 hrs.
Data set [9] in a line: Antibacterial activity against […] resistant Moraxella sp.765 clinical isolate assessed as reduction in bacterial growth incubated for 24 hrs by CLSI broth microdilution method. In kind it is functional. The settings on record: Moraxella catarrhalis.
Data set [10] relates to Escherichia coli. The data set is described as follows: Bactericidal activity against Escherichia coli ATCC 25922 assessed as reduction in bacterial growth incubated for 24 hrs followed by replating on MH broth and further incubated for 24 hrs by CLSI broth microdilution method. In kind it is functional.
The test system of data set [11] is Staphylococcus aureus. Kind of data set: Antibacterial activity against methicillin- resistant Staphylococcus aureus 25 clinical isolate assessed as reduction in bacterial growth incubated for 24 hrs by CLSI broth microdilution method. Type of data set: functional.
Data set [12] relates to Klebsiella pneumoniae. Kind of data set: Bactericidal activity against Klebsiella pneumoniae ATCC 1813 assessed as reduction in bacterial growth incubated for 24 hrs followed by replating on MH broth and further incubated for 24 hrs by CLSI broth microdilution method. In kind it is functional.
In data set [13] the test system is Staphylococcus haemolyticus. The data set is described as follows: Antibacterial activity against methicillin- resistant Staphylococcus haemolyticus 837 assessed as reduction in bacterial growth incubated for 24 hrs by CLSI broth microdilution method. In kind it is functional.
Data set [14] deals with Staphylococcus epidermidis. Kind of data set: Antibacterial activity against Staphylococcus epidermidis assessed as reduction in bacterial growth incubated for 24 hrs by CLSI broth microdilution method. In kind it is functional.
A further data set has as its system Pseudomonas. Kind of data set: Antibacterial activity against methicillin- resistant Pseudomonas spp. clinical isolate 6 assessed as reduction in bacterial growth incubated for 24 hrs by CLSI broth microdilution method. In kind it is functional.
In data set [15] the test system is Klebsiella sp. The data set is described as follows: Antibacterial activity against […] resistant Klebsiella sp. clinical isolate 12 assessed as reduction in bacterial growth incubated for 24 hrs by CLSI broth microdilution method. In kind it is functional.
In data set [16] the test system is Klebsiella sp. The data set is described as follows: Antibacterial activity against […] resistant Klebsiella sp. clinical isolate 11 assessed as reduction in bacterial growth incubated for 24 hrs by CLSI broth microdilution method. Type of data set: functional.
The test system of data set [17] is Staphylococcus aureus. The data set is described as follows: Antibacterial activity against methicillin- resistant Staphylococcus aureus 967 clinical isolate assessed as reduction in bacterial growth incubated for 24 hrs by CLSI broth microdilution method. Type of data set: functional.
Data set [18] relates to Klebsiella pneumoniae. The data set is described as follows: Antibacterial activity against Klebsiella pneumoniae ATCC 1813 assessed as reduction in bacterial growth incubated for 24 hrs by CLSI broth microdilution method. In kind it is functional.
Data set [19] has as its system Staphylococcus epidermidis. Kind of data set: Bactericidal activity against Staphylococcus epidermidis assessed as reduction in bacterial growth incubated for 24 hrs followed by replating on MH broth and further incubated for 24 hrs by CLSI broth microdilution method. In kind it is functional.
Data set [20] has as its system Acinetobacter. Kind of data set: Antibacterial activity against […] resistant Acinetobacter spp. clinical isolate 3 assessed as reduction in bacterial growth incubated for 24 hrs by CLSI broth microdilution method. Type of data set: functional.
Data set [21] deals with Acinetobacter. The data set is described as follows: Antibacterial activity against […] resistant Acinetobacter spp. clinical isolate 5 assessed as reduction in bacterial growth incubated for 24 hrs by CLSI broth microdilution method. Type of data set: functional.
Data set [22] concerns Staphylococcus aureus. Kind of data set: Antibacterial activity against methicillin- resistant Staphylococcus aureus 983 clinical isolate assessed as reduction in bacterial growth incubated for 24 hrs by CLSI broth microdilution method. In kind it is functional.
For data set [23], the system named is Acinetobacter. Kind of data set: Antibacterial activity against […] resistant Acinetobacter spp. clinical isolate 1 assessed as reduction in bacterial growth incubated for 24 hrs by CLSI broth microdilution method. Type of data set: functional.
In data set [24] the test system is Staphylococcus intermedius. The data set is described as follows: Antibacterial activity against methicillin- resistant Staphylococcus intermedius 1143 clinical isolate assessed as reduction in bacterial growth incubated for 24 hrs by CLSI broth microdilution method. Type of data set: functional.
For data set [25], the system named is Staphylococcus aureus. The data set is described as follows: Antibacterial activity against methicillin- resistant Staphylococcus aureus 2020 clinical isolate assessed as reduction in bacterial growth incubated for 24 hrs by CLSI broth microdilution method. Type of data set: functional.
In the next data set the test system is Proteus sp. The data set is described as follows: Antibacterial activity against […] resistant Proteus sp. clinical isolate 17 assessed as reduction in bacterial growth incubated for 24 hrs by CLSI broth microdilution method. Type of data set: functional. The note with it: Proteus sp. (in: enterobacteria).
In data set [26] the test system is Staphylococcus aureus. The data set is described as follows: Antibacterial activity against Staphylococcus aureus ATCC 29213 assessed as reduction in bacterial growth incubated for 24 hrs by CLSI broth microdilution method. Type of data set: functional.
Data set [27] in a line: Selectivity index, ratio of CC50 for human HSF cells to MIC for Bacillus subtilis 168. In kind it is toxicity.
For a further data set, the system named is Bacillus subtilis. Kind of data set: Bactericidal activity against Bacillus subtilis 168 assessed as reduction in bacterial growth incubated for 24 hrs followed by replating on MH broth and further incubated for 24 hrs by CLSI broth microdilution method. Type of data set: functional. The note with it: Bacillus subtilis, 168, 24 h.
Data set [28] can be described thus: Selectivity index, ratio of CC50 for human HSF cells to MIC for Staphylococcus epidermidis. In kind it is toxicity.
Data set [29] is described as follows: Selectivity index, ratio of CC50 for human HSF cells to MIC for Staphylococcus aureus ATCC 29213. In kind it is toxicity.
The mark [30] stands for this setting: Escherichia coli, ATCC 25922, 24 h, read-out: MIC.
[31] abbreviates: Staphylococcus aureus, ATCC 29213, read-out: MBC.
[32] abbreviates: Staphylococcus epidermidis, read-out: MBC.

Consider `CCCOc1c2cc(C[n+]3ccn(C)c3)cc1Cc1cc(C[n+]3ccn(C)c3)cc(c1OCCC)Cc1cc(C[n+]3ccn(C)c3)cc(c1OCCC)Cc1cc(C[n+]3ccn(C)c3)cc(c1OCCC)C2.[Cl-].[Cl-].[Cl-].[Cl-]`, for which the MIC is ≤ 10 µg/mL in the data set with Klebsiella pneumoniae [1], ≤ 10 µg/mL against Staphylococcus aureus [2], 50 µg/mL with Pseudomonas aeruginosa [3] and ≤ 10 µg/mL in the data set with Escherichia coli [4] (setting [30]).

For `CCCCCCCCOc1c2cc(C[n+]3ccn(C)c3)cc1Cc1cc(C[n+]3ccn(C)c3)cc(c1OCCCCCCCC)Cc1cc(C[n+]3ccn(C)c3)cc(c1OCCCCCCCC)Cc1cc(C[n+]3ccn(C)c3)cc(c1OCCCCCCCC)C2.[Cl-].[Cl-].[Cl-].[Cl-]`, the minimal inhibitory concentration (MIC) in the data set with Klebsiella pneumoniae [1] was > 1000 µg/mL; with Staphylococcus aureus [2], > 1000 µg/mL; in the data set on Pseudomonas aeruginosa [3], 500 µg/mL; in the data set with Escherichia coli [4] (setting [30]) it was 1000 µg/mL.

Regarding `CCCOc1c2cc(C[N+](C)(C)CCN)cc1Cc1cc(C[N+](C)(C)CCN)cc(c1OCCC)Cc1cc(C[N+](C)(C)CCN)cc(c1OCCC)Cc1cc(C[N+](C)(C)CCN)cc(c1OCCC)C2.[Cl-].[Cl-].[Cl-].[Cl-]`, the MIC in the data set on Klebsiella pneumoniae [1] is 500 µg/mL; against Staphylococcus aureus [2] it was ≤ 10 µg/mL; with Pseudomonas aeruginosa [3], 50 µg/mL; in the data set with Escherichia coli [4] (setting [30]) it was 500 µg/mL.

Take `CC(C)(C)c1cc2c(OCC(=O)NCCC[N+](C)(C)Cc3ccccc3)c(c1)Sc1cc(C(C)(C)C)cc(c1OCC(=O)NCCC[N+](C)(C)Cc1ccccc1)Sc1cc(C(C)(C)C)cc(c1OCC(=O)NCCC[N+](C)(C)Cc1ccccc1)Sc1cc(C(C)(C)C)cc(c1OCC(=O)NCCC[N+](C)(C)Cc1ccccc1)S2.[Cl-].[Cl-].[Cl-].[Cl-]`: the MIC is > 64 µg/mL with Pseudomonas aeruginosa [5]; 64 µg/mL in [6]; 64 µg/mL in data set [7]; 64 µg/mL in [9]; 16 µg/mL in the data set with Staphylococcus aureus [11]; 64 µg/mL in data set [13]. Moreover, the MIC in data set [14] is 2 µg/mL; in data set [14] (Staphylococcus epidermidis, read-out: MIC), 4 µg/mL; with Pseudomonas, 64 µg/mL; in the data set on Klebsiella sp. [15], 64 µg/mL; with Klebsiella sp. [16], > 64 µg/mL; in the data set with Staphylococcus aureus [17], 64 µg/mL. The MIC in the data set with Klebsiella pneumoniae [18] (24 h) is >64 µg/mL; in the data set on Klebsiella pneumoniae [18] (Klebsiella pneumoniae, ATCC 1813, 24 h, read-out: MIC), 32 µg/mL; with Acinetobacter [20], 64 µg/mL; in the data set with Acinetobacter [21], 64 µg/mL; in the data set on Escherichia coli [4] (24 h), 32 µg/mL; in the data set with Escherichia coli [4] (setting [30]), > 64 µg/mL. Besides, the MIC in the data set on Staphylococcus aureus [22] is 64 µg/mL; in the data set with Acinetobacter [23], 64 µg/mL; in [24] it was 16 µg/mL; with Staphylococcus aureus [25] it was 64 µg/mL; with Proteus sp. it was > 64 µg/mL; in the data set on Staphylococcus aureus [26], 4 µg/mL. In addition, in the data set with Staphylococcus aureus [26] (Staphylococcus aureus, ATCC 29213, 24 h, read-out: MIC), the minimal inhibitory concentration (MIC) came to 4 µg/mL. For the same compound, the minimum bactericidal concentration (MBC) with Staphylococcus aureus [8] (setting [31]) worked out at 64 µg/mL; in the data set with Staphylococcus aureus [8] it was 64 µg/mL; in the data set with Escherichia coli [10] it was 64 µg/mL; in the data set on Klebsiella pneumoniae [12] it was 32 µg/mL; in data set [19], 16 µg/mL; in data set [19] (setting [32]), 32 µg/mL.

Regarding `CCCC[N+](C)(C)CCCNC(=O)COc1c2cc(C(C)(C)C)cc1Sc1cc(C(C)(C)C)cc(c1OCC(=O)NCCC[N+](C)(C)CCCC)Sc1cc(C(C)(C)C)cc(c1OCC(=O)NCCC[N+](C)(C)CCCC)Sc1cc(C(C)(C)C)cc(c1OCC(=O)NCCC[N+](C)(C)CCCC)S2.[Cl-].[Cl-].[Cl-].[Cl-]`, the MIC in the data set with Pseudomonas aeruginosa [5] is > 64 µg/mL; in the data set with Escherichia coli [4] (24 h), 64 µg/mL; in the data set with Escherichia coli [4] (setting [30]), > 64 µg/mL. Moreover, the MBC is 16 µg/mL in the data set with Staphylococcus aureus [8] (setting [31]), 8 µg/mL in data set [19] (setting [32]) and 16 µg/mL with Bacillus subtilis. For the same compound, the Ratio in data set [27] was 23 and 9; in data set [28], 19; in data set [29], 19. For the same compound, the selectivity ratio in [28] (HSF cells) and in [29] (HSF cells) was 11 in each case.
